Key:
CFU-E and BFU-E = assay: Modulation of erythropoiesis: stimulation of colony formation synergistically with erythropoietin (FIG. 3a/3b); type: cell-based
Excerpt: (§1) Colony formation from the early murine progenitors not exposed to vitalethine, and either initially exposed to or initially deprived of erythropoietin are represented by upper and lower triangles, respectively. […] Bars are standard error of the mean.
(§2) Human bone marrow cells were obtained as surplus from experiments performed on material aspirated from normal volunteers with IRB approval and informed written consent. Peripheral blood cells were obtained from commercially purchased buffy coats or surgical waste (umbilical cord blood). Mouse bone marrow was flushed from femurs and obtained as surplus from experiments performed on C57B1/6 mice with animal committee approval. Human light density cells were separated by centrifugation over Ficoll-daitrizoate (SG 1.075) and depleted of adherent cells by incubation on serum coated plastic. Mouse cells were used without further fractionation. […] One unit per ml of erythropoietin and medium without added factors served as positive and negative controls. Initial incubations were carried out for 18 hours at 37° . […]

CFU-E progenitors = assay: Modulation of erythropoiesis: colony formation from CFU-E progenitors in plasma clot culture; type: cell-based, murine; details: depending upon concentration (FIG. 3a)
Excerpt: as §1, §2

human BFU-E = assay: Modulation of erythropoiesis: colony formation from human BFU-E in plasma clot culture; type: cell-based; details: 18 h initial incubation with vitalethine; compared with levels initially containing erythropoietin (FIG. 3a)
Excerpt: as §1, §2

[1] = test system: Cloudman S-91 murine melanoma cells; assay: Treatment of murine Cloudman S-91 melanoma in mice, tumor volume; type: in vivo, mouse
Experimental: This regimen is predicated on the observation that certain enzymes thought to be responsive to these compounds, and which may pay a role in the reported results, are induced 48 hours after chemical stimulation. […] Data presented is calculated from measured tumor diameters, including mice with no tumor. Error bars indicate standard error of the mean.
Cloudman S-91 murine melanoma cells (American Type Culture Collection #53.1, Clone M-3) from a (C X DBA)F1 male mouse were grown in 75 ml flasks (Corning Glass Works, Corning, N.Y., USA) containing Ham's F12 medium supplemented with 15% fetal bovine serum, penicillin (100 U/ml), and streptomycin (100 μg/ml), all commercially available from Sigma Chemical Company, St. Louis, Mo., USA. Cultures were incubated at 37° C. under 5.5% carbon dioxide initially at 6×10^6 cells per ml for two days, with a medium change after one day. Cultures were then trypsinized, split into two fresh flasks at one half the cell density, above, and maintained for one week prior to injection in female (DBA X BALB c) mice (CD2F1/Hsd from Harlan Sprague Dawley, Inc., Indianapolis, Ind., USA). For inoculation, cells were first trypsinized, washed 3 times in phosphate buffered saline, and diluted to 1×10^5 cells/100 μl phosphate buffered saline prior to subcutaneous injection in the flank.
The compounds were dissolved in water, filtered through an appropriate sterilizing filter (0.22 μm non-pyrogenic, μ Star LB™ from Costar®, Cambridge, Mass., USA), diluted to the desired concentration in sterile, physiological saline (0.1 ml), and injected intraperitoneally with a 27 gauge, ⅜ inch allergy syringe (Becton Dickinson, Rutherford, N.J., USA); by gently lifting the skin on the abdomen of supine mice and injecting horizontally, puncture of peritoneal organs is avoided, thereby minimizing trauma to the mice.

## O=C(O)NCCC(=O)NCCSSCCNC(=O)CCNC(=O)O [vitalethine, N,N′-(dithiodi-2,1-ethanediyl)-bis-(3-carboxyamino-propan-amide)]
CFU-E and BFU-E
  concentration necessary for a similar response (stimulation of colony formation): about 10 pg/ml
CFU-E progenitors
  erythropoiesis from the CFU-E progenitors: either enhances or minimizes erythropoiesis
Human BFU-E
  colony formation from human BFU-E initially deprived of erythropoietin: increased
[1]; 100 pg/kg mouse (FIG. 1b)
  average tumor volume: diminishes average tumor volume substantially
[1]; 10 femtogram/kg mouse intraperitoneally three times per week, beginning second day after tumor inoculation
  diminution of tumor volume compared to saline controls: ~70%
[1]; 10 fg/kg mouse (FIG. 1a)
  average tumor volume: diminishes average tumor volume substantially

— patent publication US20030166715A1, “Use of vitaletheine modulators in the prophylaxis and treatment of disease” (priority 1990, published 2003)
